Measured values from paper PMC9067936, “SHIP164 is a chorein motif lipid transfer protein that controls endosome–Golgi membrane traffic” (The Journal of Cell Biology, 2022).

Molecular target: T1, 3XFLAG-SHIP164Δ901–1099 (Homo sapiens, UniProt A0JNW5, DEL901-1099)
T1 construct: gene BLTP3B; residues 901-1099 (predicted unstructured) deleted; N-terminal 3xFLAG tag kept; expressed in Expi293F; tail-to-tail dimer in vitro
Test: native gel co-migration, NBD fluorescence calibrated with E-Syt2 standard curve
Assay type: binding
Details: 0.2 mM NBD-PE, 2 h on ice; labelled compound; stoichiometry estimate

T1 sequence (A0JNW5 with tags, fused parts or gaps DEL901-1099): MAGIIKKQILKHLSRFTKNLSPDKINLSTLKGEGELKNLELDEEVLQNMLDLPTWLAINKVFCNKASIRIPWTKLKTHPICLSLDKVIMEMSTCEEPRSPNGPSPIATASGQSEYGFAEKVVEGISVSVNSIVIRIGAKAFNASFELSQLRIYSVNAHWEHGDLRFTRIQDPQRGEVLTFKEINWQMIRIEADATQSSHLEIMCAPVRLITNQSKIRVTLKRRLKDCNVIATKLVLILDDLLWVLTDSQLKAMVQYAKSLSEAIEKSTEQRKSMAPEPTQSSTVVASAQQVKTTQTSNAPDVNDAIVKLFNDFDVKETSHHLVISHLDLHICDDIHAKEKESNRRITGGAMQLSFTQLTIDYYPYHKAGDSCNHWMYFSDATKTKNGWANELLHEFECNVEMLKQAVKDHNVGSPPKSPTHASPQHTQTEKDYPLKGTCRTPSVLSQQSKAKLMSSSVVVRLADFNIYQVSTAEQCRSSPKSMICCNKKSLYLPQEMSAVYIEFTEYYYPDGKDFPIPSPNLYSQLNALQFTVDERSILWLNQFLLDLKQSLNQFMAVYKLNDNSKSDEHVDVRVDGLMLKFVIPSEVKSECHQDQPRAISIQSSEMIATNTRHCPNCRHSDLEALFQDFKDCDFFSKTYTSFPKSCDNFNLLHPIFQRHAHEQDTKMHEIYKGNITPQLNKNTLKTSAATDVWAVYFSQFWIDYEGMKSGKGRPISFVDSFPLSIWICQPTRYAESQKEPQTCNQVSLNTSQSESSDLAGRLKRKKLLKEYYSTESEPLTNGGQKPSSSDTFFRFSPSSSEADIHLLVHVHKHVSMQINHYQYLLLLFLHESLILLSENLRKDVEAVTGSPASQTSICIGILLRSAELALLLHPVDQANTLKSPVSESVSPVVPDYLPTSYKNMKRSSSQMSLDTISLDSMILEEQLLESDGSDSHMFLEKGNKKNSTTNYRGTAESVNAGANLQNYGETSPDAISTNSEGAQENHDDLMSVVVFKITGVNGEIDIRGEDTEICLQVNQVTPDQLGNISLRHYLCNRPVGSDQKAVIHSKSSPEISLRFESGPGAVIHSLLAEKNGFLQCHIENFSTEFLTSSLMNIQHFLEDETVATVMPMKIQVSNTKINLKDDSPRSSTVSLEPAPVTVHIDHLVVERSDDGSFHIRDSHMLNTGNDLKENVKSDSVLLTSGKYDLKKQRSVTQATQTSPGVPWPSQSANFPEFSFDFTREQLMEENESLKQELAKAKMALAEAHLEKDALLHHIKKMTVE

CCCCCCCC/C=C\CCCCCCCC(=O)OC[C@H](COP(=O)(O)OCCNc1ccc([N+](=O)[O-])c2nonc12)OC(=O)CCCCCCC/C=C\CCCCCCCC [NBD-PE]
lipids per SHIP164 molecule: ~ 8 lipids per protein molecule
